In patent US20230027066A1 (Urovant Sciences GmbH, priority 2019, published 2023):

Test system: men and women with overactive bladder
Assay: 40-week extension study (52 weeks), efficacy
Assay type: in vivo, human
Conditions: for Micturitions, Week 52 Mean / Total urinary incontinence episodes, Change from Baseline Mean at Week 52 / Total urinary incontinence episodes, Week 52 Mean / Urgency episodes, Change from Baseline LS Mean (SE) at Week 52: Full Analysis Set Extension; for UUI Episodes 75% Responders at Week 52 / UUI Episodes 100% Responders at Week 52 / Urgency Episodes 50% Responders at Week 52: multiple imputation; for UUI Episodes, Change from Baseline LS Mean (SE) at Week 52 / Micturitions, Change from Baseline LS Mean (SE) at Week 52: 52-Weeks arm; for UUI Episodes, Change from Baseline LS Mean (SE) at Week 52 / Total urinary incontinence episodes, Change from Baseline LS Mean (SE) at Week 52: Full Analysis Set Extension for Incontinence; for Micturitions, Change from Baseline LS Mean (SE) at Week 52: mixed model for repeated measures; for Urgency episodes, Change from Baseline LS Mean (SE) at Week 52 / Total urinary incontinence episodes, Change from Baseline LS Mean (SE) at Week 52: 52-Weeks treatment; for % Responders, 50% Reduction in Total Inc at Week 52 / % Responders, 50% Reduction in UE at Week 52 / % Responders, 75% Reduction in UUI at Week 52 / % Responders, 100% Reduction in UUI at Week 52 / Micturitions, Least Squares Means CFB at Week 52 / Total Incontinence Episodes, Least Squares Means CFB at Week 52 / UUI Episodes, Least Squares Means CFB at Week 52 / Urgency Episodes (UE), Least Squares Means CFB at Week 52 / Volume Voided, mean change from baseline at Week 52: 52-week treatment, Table 97
Description: All CFB calculations used the parent study Baseline value.

| SMILES | Micturitions, Change from Baseline at Week 52, Mean (40-Week arm) | UUI Episodes, Change from Baseline at Week 52, Mean (40-Week arm) | UUI Episodes, Week 52 Mean (40-Week arm) | Urgency Episodes, Change from Baseline at Week 52, Mean (40-Week arm) | Urgency Episodes, Week 52 Mean (40-Week arm) | Micturitions, Week 52 Mean (40-Week arm) | Total urinary incontinence episodes, Change from Baseline Mean at Week 52 (40-Week treatment group) | Total urinary incontinence episodes, Week 52 Mean (40-Week treatment group) | UUI Episodes 75% Responders at Week 52 (40-Week treatment group) [%] | UUI Episodes 100% Responders at Week 52 (40-Week treatment group) [%] | Urgency Episodes 50% Responders at Week 52 (40-Week treatment group) [%] | Micturitions, Change from Baseline at Week 52, Mean (52-Week arm) | UUI Episodes, Change from Baseline at Week 52, Mean (52-Week arm) | UUI Episodes, Week 52 Mean (52-Week arm) | Urgency Episodes, Change from Baseline at Week 52, Mean (52-Week arm) | Urgency Episodes, Week 52 Mean (52-Week arm) | Micturitions, Week 52 Mean (52-Week arm) | Total urinary incontinence episodes, Change from Baseline Mean at Week 52 (52-Week treatment group) | Total urinary incontinence episodes, Week 52 Mean (52-Week treatment group) | UUI Episodes 75% Responders at Week 52 (52-Week treatment group) [%] | further results |
| --- | --- | --- | --- | --- | --- | --- | --- | --- | --- | --- | --- | --- | --- | --- | --- | --- | --- | --- | --- | --- | --- |
| O=C(Nc1ccc(C[C@@H]2CC[C@H]([C@H](O)c3ccccc3)N2)cc1)[C@@H]1CCc2nccc(=O)n21 [Vibegron, (6S)-N-[4-[[(2S,5R)−5-[(R)-hydroxy(phenyl)methyl]pyrrolidin−2-yl]methyl]phenyl]−4-oxo−7,8-dihydro−6H-pyrrolo[1,2-a]pyrimidine−6-carboxamide] | −3.1 | −2.3 | 1.2 | −4.0 | 4.7 | 9.3 | −2.5 | 1.8 | 58.7 | 42.1 | 51.4 | −2.5 | −2.2 | 1.0 | −3.4 | 4.5 | 8.7 | −2.5 | 1.2 | 61.0 | UUI Episodes 100% Responders at Week 52 (52-Week treatment group): 40.8%; Urgency Episodes 50% Responders at Week 52 (52-Week treatment group): 49.4%; UUI Episodes, Change from Baseline LS Mean (SE) at Week 52: −2.2 (0.15); Micturitions, Change from Baseline LS Mean (SE) at Week 52: −2.4 (0.24); Urgency episodes, Change from Baseline LS Mean (SE) at Week 52: −3.4 (0.34); Total urinary incontinence episodes, Change from Baseline LS Mean (SE) at Week 52: −2.5 (0.17); % Responders, 50% Reduction in Total Inc at Week 52: 71%; % Responders, 50% Reduction in UE at Week 52: 49%; % Responders, 75% Reduction in UUI at Week 52: 61%; % Responders, 100% Reduction in UUI at Week 52: 41%; Micturitions, Least Squares Means CFB at Week 52: −2.4; Total Incontinence Episodes, Least Squares Means CFB at Week 52: −2.5; UUI Episodes, Least Squares Means CFB at Week 52: −2.2; Urgency Episodes (UE), Least Squares Means CFB at Week 52: −3.4; Volume Voided, mean change from baseline at Week 52: 26 mL |
| Cc1ccc(O)c([C@H](CCN(C(C)C)C(C)C)c2ccccc2)c1 [Tolterodine ER, tolterodine, reference compound] | −2.6 | −1.5 | 1.1 | −3.5 | 3.9 | 8.8 | −1.9 | 1.2 | 54.0 | 37.8 | 50.1 | −2.3 | −1.7 | 1.4 | −3.5 | 4.7 | 9.0 | −2.0 | 1.7 | 54.4 | UUI Episodes 100% Responders at Week 52 (52-Week treatment group): 34.2%; Urgency Episodes 50% Responders at Week 52 (52-Week treatment group): 51.0%; UUI Episodes, Change from Baseline LS Mean (SE) at Week 52: −1.7 (0.17); Micturitions, Change from Baseline LS Mean (SE) at Week 52: −2.0 (0.26); Urgency episodes, Change from Baseline LS Mean (SE) at Week 52: −3.2 (0.37); Total urinary incontinence episodes, Change from Baseline LS Mean (SE) at Week 52: −1.9 (0.19); % Responders, 50% Reduction in Total Inc at Week 52: 62%; % Responders, 50% Reduction in UE at Week 52: 51%; % Responders, 75% Reduction in UUI at Week 52: 54%; % Responders, 100% Reduction in UUI at Week 52: 34%; Micturitions, Least Squares Means CFB at Week 52: −2.0; Total Incontinence Episodes, Least Squares Means CFB at Week 52: −1.9; UUI Episodes, Least Squares Means CFB at Week 52: −1.7; Urgency Episodes (UE), Least Squares Means CFB at Week 52: −3.2; Volume Voided, mean change from baseline at Week 52: 9 mL |
